Experiment [1] deals with T1, nanoFAST (Halorhodospira halophila, UniProt P16113, Q41K/E46Q/C69G/S72T/A84S/Y94W/T95A/F96I/D97P/Y98T/Q99S/M100R/T101G/M109L/S117R).
T1 construct: gene pyp; FAST (engineered PYP) lacking the first 27 residues, 98 aa; C-terminal tag of three glycines and six histidines; E. coli BL21(DE3), Ni purification
T1 sequence (P16113 28-125 Q41K/E46Q/C69G/S72T/A84S/Y94W/T95A/F96I/D97P/Y98T/Q99S/M100R/T101G/M109L/S117R): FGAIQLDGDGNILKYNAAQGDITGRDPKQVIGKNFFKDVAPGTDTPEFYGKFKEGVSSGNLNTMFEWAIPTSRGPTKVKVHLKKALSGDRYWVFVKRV
Put plainly: spectrofluorometric titration, plate reader. Type of experiment: binding. Particulars: PBS pH 7.4, 25 °C, 0.10 µM protein; non-covalent fluorogen. The source says: spectrofluorometric titration, plate reader on nanoFAST

Experiment [2] has as its target T2, nanoFAST (Halorhodospira halophila, UniProt P16113, C69G/Y94W/T95M/F96I/D97P/Y98T/Q99S/M100R/T101G).
T2 construct: gene pyp; FAST (engineered PYP) lacking the first 27 residues, 98 aa; C-terminal tag of three glycines and six histidines; E. coli BL21(DE3), Ni purification
T2 sequence (P16113 28-125 C69G/Y94W/T95M/F96I/D97P/Y98T/Q99S/M100R/T101G): T1 sequence (P16113 28-125 Q41K/E46Q/C69G/S72T/A84S/Y94W/T95A/F96I/D97P/Y98T/Q99S/M100R/T101G/M109L/S117R) with K14Q, Q19E, T45S, S57A, A68M, L82M, R90S
Put plainly: fluorescence enhancement screen, plate reader. The class given is binding. As to conditions: PBS pH 7.4, 10 µM fluorogen, 1 µM protein.

Each structure is given as a SMILES string. Positions count from the first letter of the chain named.

As a reminder, the Kd is the concentration at which binding is half-saturated. `Cc1cc(/C=C2\SC(=S)NC2=O)c(C)cc1O` [HBR-2,5-DM]: the Kd at nanoFAST [1] is 0.5 ± 0.16 µM.
`COc1cc(/C=C2\SC(=S)NC2=O)c(OC)cc1O` [HBR-DOM2, 2,5-dimethoxy-4-hydroxy-arylidene-rhodanine] yielded a Kd on nanoFAST [1] of 0.13 ± 0.01 µM. The “fluorescence enhancement screen, plate reader” value on nanoFAST [2] is given as “significant decrease in fluorescence enhancement with the previously proposed fluorogen of the nanoFAST protein”.
Take `COc1cc(/C=C2\SC(=S)NC2=O)cc(OC)c1O` [HBR-DOM]: the Kd at nanoFAST [1] is 1.69 ± 0.32 µM.

These data come from publication PMC10931682, “A Combination of Library Screening and Rational Mutagenesis Expands the Available Color Palette of the Smallest Fluorogen-Activating Protein Tag nanoFAST” (International Journal of Molecular Sciences, 2024).
